Test results taken from patent US20040224969A1, “Salts of substituted 1,2,3,4-tetrahydroquinoline-2-carboxylic acid compounds” (Gruenenthal GmbH, priority 2001, published 2004).

Columns and labels:
[1] = system: formalin-induced nociception; test: Formalin test on the rat (second phase); type: in vivo; conditions: late phase
Description: The experiments for determining the antinociceptive action of the compounds of formula I according to the invention were performed in the formalin test on male rats (Sprague-Dawley, 150-170 g).
In the formalin test a distinction is made between the first (early) phase (0-15 min after the formalin injection) and the second (late) phase (15-60 min after the formalin injection) (D. Dubuisson, S. G. Dennis, Pain, 4, 161-174 (1977)). The early phase represents a model for acute pain as a direct reaction to the formalin injection, while the late phase is regarded as a model for persistent (chronic) pain (T. J. Coderre, J. Katz, A. L. Vaccarino, R. Melzack, Pain, vol. 52, p. 259, 1993). […]
A single subcutaneous formalin injection (50 μl, 5%) in the dorsal side of the right back paw of free-moving experimental animals induced a nociceptive reaction which is represented by the following behavioral parameters: lifting and holding of the affected paw (score 1), shaking or twitching (score 2), licking and biting (score 3). The differing modes of behavior triggered by the formalin injection were recorded continuously by observing the animals in the late phase of the formalin test, and differently weighted in an evaluation. Normal behavior, where the animal distributes its weight evenly over all four paws, was recorded as a score of 0. […]

AMPA receptor channels = test: AMPA-induced ionic fluxes on RNA-injected Xenopus oocytes (two-electrode voltage clamp); type: cell-based, rat; conditions: 10 μmol/l compound, AMPA 100 μmol/l, n = 2
[2] = biological target: T1, glycine binding site of the NMDA receptor channel (Rattus norvegicus, UniProt P35439); test: Receptor binding (glycine binding site of the NMDA receptor channel), (3H)-MDL 105.519 displacement on brain membrane homogenates; conditions: for Displacement (%, 10 μmol/l): displacement of (3H)-MDL 105.519 at 10 μmol/l of substance; for Ki: rat cortex/hippocampus membranes, 1 nmol/l (3H)-MDL 105.519, mean of 3 independent experiments
T1 construct: from tissue; host or cells: rat brain cortex and hippocampus membrane homogenate (male Wistar rats)
Description: Receptor binding (glycine binding site of the NMDA receptor channel)
The tests for determining the affinity of the compounds of formula I according to the invention for the glycine binding site of the NMDA receptor channel were carried out on brain membrane homogenates (homogenate of the cortex and hippocampus areas of the brain of male rats, Wistar strain) [B. M. Baron, B. W. Siegel, B. L. Harrison, R. S. Gross, C. Hawes and P. Towers, Journal Of Pharmacology and Experimental Therapeutics, vol. 279, p. 62, 1996].
For this purpose, the cortex and hippocampus were freed without cutting from freshly removed rat brains, homogenized in 5 mmol/l TRIS acetate buffer, 0.32 mol/l sucrose, pH 7.4 (10 ml/g of fresh weight), using a Potter homogenizer (Braun/Melsungen, 10 piston strokes at 500 rpm), with ice cooling, and then centrifuged for 10 minutes at 1000 g and 4° C. The first supernatant was collected and the sediment was homogenized again with 5 mmol/l TRIS acetate buffer, 0.32 mol/l sucrose, pH 7.4 (5 ml/g of original fresh weight), using the Potter homogenizer (10 piston strokes at 500 rpm), with ice cooling, and centrifuged for 10 minutes at 1000 g and 4° C. The resulting supernatant was combined with the supernatant from the first centrifugation and centrifuged at 17,000 g for 20 minutes at 4° C. The supernatant after this centrifugation was discarded and the membrane sediment was taken up with 5 mmol/l TRIS acetate buffer, pH 8.0 (20 ml/g of original fresh weight), and homogenized with 10 piston strokes at 500 rpm.
The membrane homogenate was then incubated for 1 hour at 4° C. and centrifuged for 30 minutes at 50,000 g and 4° C. The supernatant was discarded and the centrifuge tube containing the membrane sediment was sealed with Parafilm and frozen for 24 hours at −20° C. On the following day the membrane sediment was thawed, taken up with ice-cold 5 mmol/l TRIS acetate buffer, 0.1% saponin (w/v), pH 7.0 (10 ml/g of original fresh weight), homogenized with 10 piston strokes at 500 rpm and then centrifuged for 20 minutes at 50,000 g and 4° C. The resulting supernatant was discarded and the sediment was taken up in a small volume with 5 mmol/l TRIS acetate buffer, pH 7.0 (approximately 2 ml/g of original fresh weight), and homogenized again with 10 piston strokes at 500 rpm. After determination of the protein content, the membrane homogenate was adjusted to a protein concentration of 10 mg protein/ml with 5 mmol/l TRIS acetate buffer, pH 7.0, and frozen in aliquots until tested.
For the receptor binding test, aliquots were thawed, diluted to 1:10 with 5 mmol/l TRIS acetate buffer, pH 7.0, homogenized with 10 piston strokes at 500 rpm using the Potter homogenizer (10 piston strokes at 500 rpm), with ice cooling, and centrifuged for 60 minutes at 55,000 g and 4° C. […]
In the binding test, 50 mmol/l TRIS acetate buffer, pH 7.0, was used as the buffer and 1 nmol/l (^3H)-MDL 105.519 (B. M. Baron et al., 1996) was used as the radioactive ligand. The proportion of non-specific binding was determined in the presence of 1 mmol/l glycine.
In other preparations the compounds according to the invention were added in concentration series and the displacement of the radioactive ligand from its specific binding to the glycine binding site of the NMDA receptor channel was measured. […]

Row | SMILES | % inhibition of the formalin-induced nociception ([1]; i.p., 21.5 mg/kg) [%] | AMPA-induced ionic fluxes Inhibition at 10 μmol/l of the compounds according to the invention (AMPA receptor channels) | Displacement (%, 10 μmol/l) [2] [%] | Ki [2] [nM] | % inhibition of the formalin-induced nociception ([1]; i.v., 68.1 mg/kg) [%]
1 | O=C(O)C1Nc2cc(Cl)cc(Cl)c2C2C=CCC12 (centres unmarked) [Example 1, 7,9-Dichloro-3a,4,5,9b-tetrahydro-3H-cyclopenta [c]quinoline-4-carboxylic acid] | 64.5 | 5.4% (n = 2) | – | – | –
2 | O=C(O)C1Nc2ccc(Cl)cc2C2C=CCC12 (centres unmarked) [Example 2, 8-Chloro-3a,4,5,9b-tetrahydro-3H-cyclopenta [c]quinoline-4-carboxylic acid] | – | – | 100 | 300 | –
3 | O=C([O-])C1Nc2cc(Cl)cc(Cl)c2C2CCCC12.[Na+] (centres unmarked) [Example 54, 7,9-Dichloro-2,3,3a,4,5,9b-hexahydro-1H-cyclopenta [c]quinoline-4-carboxylate; sodium salt] | – | – | 97 | – | –
4 | O=C([O-])C1Nc2cc(Cl)cc(Cl)c2C2C=CCC12.[Na+] (centres unmarked) [Example 55, 7,9-Dichloro-3a,4,5,9b-tetrahydro-3H-cyclopenta [c]quinoline-4-carboxylate; sodium salt] | – | – | 90 | 350 | 56
